Experimental data reported in patent US7659400B2, “Radiolabelled benzamide analogues, their synthesis and use in diagnostic imaging” (Washington University, priority 2003, dated 2010).
Values joined by “and” are separate entries in the source; they are usually repeats but may differ in a detail not shown here. Identical values can stand only once. Blank lines part the entries; values can stand above or below the molecule they belong to.

Test system: EMT-6 tumors
Test: Biodistribution of 18F-labeled ligands in mice bearing EMT-6 tumors
Type: in vivo, female Balb/c mice
Details: for clearance from the blood (in words): mouse, in vivo
Description: This example illustrates in vivo evaluation of compounds of the present teachings. All animal experiments were conducted in compliance with the Guidelines for the Care and Use of Research Animals established by Washington University's Animal Studies Committee. EMT-6 mouse mammary adenocarcinoma cells (5×10^5 cells in 100 uL of phosphate-buffered saline) were implanted subcutaneously in the scapular region of female Balb/c mice (˜2-month old and 17-22 g; Charles River Laboratories). […] Groups of at least 4 mice were used for each time point. […] After counting, the percentage of the injected dose per gram of tissue (%ID/g) was calculated. The tumor/organ ratios were calculated by dividing the %ID/g of the tumor by the %ID/g of each organ.

[1] = 60 min (1 h) after i.v. injection
[2] = 120 min (2 h) after i.v. injection

Biodistribution: blood (5 min after i.v. injection): 3.57 ± 0.43 %ID/g | Biodistribution: bone (5 min after i.v. injection): 2.90 ± 0.39 %ID/g | Biodistribution: brain (5 min after i.v. injection): 1.09 ± 0.11 %ID/g | Biodistribution: fat (5 min after i.v. injection): 2.85 ± 0.47 %ID/g | Biodistribution: heart (5 min after i.v. injection): 3.74 ± 0.37 %ID/g | Biodistribution: kidney (5 min after i.v. injection): 42.94 ± 3.34 %ID/g | Biodistribution: liver (5 min after i.v. injection): 32.60 ± 3.96 %ID/g | Biodistribution: lung (5 min after i.v. injection): 12.08 ± 1.98 %ID/g | Biodistribution: muscle (5 min after i.v. injection): 1.95 ± 0.19 %ID/g | Biodistribution: tumor (tumor uptake) (5 min after i.v. injection): 3.28 ± 0.41 %ID/g | Biodistribution: blood (30 min after i.v. injection): 2.81 ± 0.32 %ID/g | Biodistribution: bone (30 min after i.v. injection): 1.17 ± 0.06 %ID/g | Biodistribution: brain (30 min after i.v. injection): 0.40 ± 0.03 %ID/g | Biodistribution: fat (30 min after i.v. injection): 0.96 ± 0.13 %ID/g | Biodistribution: heart (30 min after i.v. injection): 1.55 ± 0.11 %ID/g | Biodistribution: kidney (30 min after i.v. injection): 17.55 ± 2.75 %ID/g | Biodistribution: liver (30 min after i.v. injection): 13.12 ± 1.39 %ID/g | Biodistribution: lung (30 min after i.v. injection): 3.08 ± 0.23 %ID/g | Biodistribution: muscle (30 min after i.v. injection): 0.98 ± 0.18 %ID/g | Biodistribution: tumor (tumor uptake) (30 min after i.v. injection): 2.59 ± 0.19 %ID/g | Biodistribution: tumor (tumor uptake) [1]: 2.09 ± 0.28 %ID/g | Biodistribution: blood (60 min after i.v. injection): 1.69 ± 0.63 %ID/g | Biodistribution: bone (60 min after i.v. injection): 1.12 ± 0.16 %ID/g | Biodistribution: brain (60 min after i.v. injection): 0.32 ± 0.05 %ID/g | Biodistribution: fat (60 min after i.v. injection): 0.38 ± 0.05 %ID/g | Biodistribution: heart (60 min after i.v. injection): 1.04 ± 0.21 %ID/g | Biodistribution: kidney (60 min after i.v. injection): 6.92 ± 1.61 %ID/g | Biodistribution: liver (60 min after i.v. injection): 5.69 ± 0.54 %ID/g | Biodistribution: lung (60 min after i.v. injection): 1.60 ± 0.27 %ID/g | Biodistribution: muscle (60 min after i.v. injection): 0.58 ± 0.11 %ID/g | Biodistribution: tumor (tumor uptake) [2]: 0.96 %ID/g and 0.96 ± 0.24 %ID/g | Biodistribution: blood (120 min after i.v. injection): 0.52 ± 0.10 %ID/g | Biodistribution: bone (120 min after i.v. injection): 1.28 ± 0.28 %ID/g | Biodistribution: brain (120 min after i.v. injection): 0.20 ± 0.03 %ID/g | Biodistribution: fat (120 min after i.v. injection): 0.15 ± 0.06 %ID/g | Biodistribution: heart (120 min after i.v. injection): 0.40 ± 0.07 %ID/g | Biodistribution: kidney (120 min after i.v. injection): 1.12 ± 0.16 %ID/g | Biodistribution: liver (120 min after i.v. injection): 2.30 ± 0.33 %ID/g | Biodistribution: lung (120 min after i.v. injection): 0.51 ± 0.08 %ID/g | Biodistribution: muscle (120 min after i.v. injection): 0.28 ± 0.10 %ID/g | tumor:fat ratio (2 h after i.v. injection): ~6
Structure (SMILES): COc1cc2c(cc1OC)CN(CCCCNC(=O)c1cc(Br)ccc1OCC[18F])CC2 [[^18F]3d]
clearance from the blood (in words): cleared much more slowly from the blood than [^18F]3c

Biodistribution: blood (5 min after i.v. injection): 4.60 ± 0.44 %ID/g | Biodistribution: bone (5 min after i.v. injection): 2.59 ± 0.28 %ID/g | Biodistribution: brain (5 min after i.v. injection): 0.55 ± 0.04 %ID/g | Biodistribution: fat (5 min after i.v. injection): 2.32 ± 0.46 %ID/g | Biodistribution: heart (5 min after i.v. injection): 3.22 ± 0.27 %ID/g | Biodistribution: kidney (5 min after i.v. injection): 36.07 ± 2.28 %ID/g | Biodistribution: liver (5 min after i.v. injection): 37.26 ± 4.88 %ID/g | Biodistribution: lung (5 min after i.v. injection): 9.71 ± 0.83 %ID/g | Biodistribution: muscle (5 min after i.v. injection): 1.52 ± 0.10 %ID/g | Biodistribution: tumor (tumor uptake) (5 min after i.v. injection): 2.54 ± 0.62 %ID/g | Biodistribution: blood (30 min after i.v. injection): 4.30 ± 0.59 %ID/g | Biodistribution: bone (30 min after i.v. injection): 1.31 ± 0.14 %ID/g | Biodistribution: brain (30 min after i.v. injection): 0.44 ± 0.04 %ID/g | Biodistribution: fat (30 min after i.v. injection): 1.04 ± 0.06 %ID/g | Biodistribution: heart (30 min after i.v. injection): 2.37 ± 0.29 %ID/g | Biodistribution: kidney (30 min after i.v. injection): 17.43 ± 1.95 %ID/g | Biodistribution: liver (30 min after i.v. injection): 17.35 ± 2.72 %ID/g | Biodistribution: lung (30 min after i.v. injection): 4.07 ± 0.46 %ID/g | Biodistribution: muscle (30 min after i.v. injection): 1.12 ± 0.05 %ID/g | Biodistribution: tumor (tumor uptake) (30 min after i.v. injection): 2.81 ± 0.62 %ID/g | Biodistribution: tumor (tumor uptake) [1]: 2.72 ± 0.13 %ID/g | Biodistribution: blood (60 min after i.v. injection): 3.39 ± 0.29 %ID/g | Biodistribution: bone (60 min after i.v. injection): 0.99 ± 0.07 %ID/g | Biodistribution: brain (60 min after i.v. injection): 0.36 ± 0.02 %ID/g | Biodistribution: fat (60 min after i.v. injection): 0.62 ± 0.10 %ID/g | Biodistribution: heart (60 min after i.v. injection): 1.61 ± 0.11 %ID/g | Biodistribution: kidney (60 min after i.v. injection): 9.36 ± 0.90 %ID/g | Biodistribution: liver (60 min after i.v. injection): 7.31 ± 0.98 %ID/g | Biodistribution: lung (60 min after i.v. injection): 2.34 ± 0.12 %ID/g | Biodistribution: muscle (60 min after i.v. injection): 0.83 ± 0.04 %ID/g | Biodistribution: tumor (tumor uptake) [2]: 1.92 %ID/g and 1.92 ± 0.10 %ID/g | Biodistribution: blood (120 min after i.v. injection): 1.92 ± 0.59 %ID/g | Biodistribution: bone (120 min after i.v. injection): 1.67 ± 0.27 %ID/g | Biodistribution: brain (120 min after i.v. injection): 0.37 ± 0.06 %ID/g | Biodistribution: fat (120 min after i.v. injection): 0.44 ± 0.08 %ID/g | Biodistribution: heart (120 min after i.v. injection): 1.00 ± 0.23 %ID/g | Biodistribution: kidney (120 min after i.v. injection): 3.92 ± 0.98 %ID/g | Biodistribution: liver (120 min after i.v. injection): 4.25 ± 1.56 %ID/g | Biodistribution: lung (120 min after i.v. injection): 1.36 ± 0.24 %ID/g | Biodistribution: muscle (120 min after i.v. injection): 0.60 ± 0.11 %ID/g
Structure (SMILES): COc1cc2c(cc1OC)CN(CCCCNC(=O)c1cc(I)ccc1OCC[18F])CC2 [[^18F]3e]
clearance from the blood (in words): cleared much more slowly from the blood than [^18F]3c
